# Results taken from patent publication US9067897B2, “2,4-Diaminoquinazolines for spinal muscular atrophy” (Families of Spinal Muscular Atrophy, priority 2004, dated 2015).
# pEC50: −log10 of the molar value.
# System: SMN2 promoter
# Test: SMN2 promoter assay (β-lactamase reporter) in NSC-34 cells
# Assay type: cell-based, mouse
# Settings: Mus musculus, SMN2 promoter driving β-lactamase, 12 point dose curve, average of 3-6 dose curve experiments
row,Compound,pEC50
1,"COc1ccccc1COc1cccc2nc(N)nc(N)c12 [Example 142, 5-(2-Methoxybenzyloxy)quinazoline-2,4-diamine]",> 6.00
2,"COCOCC(COc1cccc2nc(N)nc(N)c12)c1ccc(Cl)cc1 (stereo not shown) [Example 68, 5-[2-(4-Chlorophenyl)-3-methoxymethoxypropoxy]-quinazoline-2,4-diamine]",> 6.00
3,"Nc1nc(N)c2c(OCc3cccs3)cccc2n1 [Example 22, 5-(Thiophen-2-ylmethoxy)quinazoline-2,4-diamine]",> 6.00
4,"Nc1nc(N)c2c(OCc3cccc(I)c3)cccc2n1 [Example 77, 5-(3-Iodo-benzyloxy)-quinazoline-2,4-diamine]",> 6.00
5,"C[C@H](Oc1cccc2nc(N)nc(N)c12)c1cccc(Cl)c1 [Example 162, 5-[(S)-1-(3-Chlorophenyl)ethoxy]quinazolin-2,4-diamine]",> 6.00
6,"Nc1nc(N)c2c(OCc3ccco3)cccc2n1 [Example 21, 5-(Furan-2-ylmethoxy)quinazoline-2,4-diamine]",> 6.00
7,"Nc1nc(N)c2c(OC3CCc4c(F)cccc43)cccc2n1 (stereo not shown) [Example 80, 5-(4-Fluoroindan-1-yloxy)-quinazoline-2,4-diamine]",> 6.00

# Same assay, conditions: SMN2 promoter driving β-lactamase, 12 point dose curve, average of 3-6 dose curve experiments
row,Compound,pEC50
1,"COc1cccc2c1OCC2Oc1cccc2nc(N)nc(N)c12 (stereo not shown) [Example 72, 5-(7-Methoxy-2,3-dihydrobenzofuran-3-yoloxy)-quinazoline-2.4-diamine]",5.30 to 6.00

# System: SMN
# Test: not given
# Settings: cited from earlier work
row,Compound,SMN expression
1,CCCC(=O)[O-].[Na+] [sodium butyrate],increase SMN expession
2,phenylbuytreate,increase SMN expession
